Data taken from PubChem BioAssay AID248 (DTP/NCI, 2004).
“And” between values parts separate entries of the source, which are not always exact repeats. Equal values may be shown once. Inconclusive results and toxic doses are left out. No stated cut-off is given here; in the data, active means T/C of 150% or more; inactive means T/C below 125%.

System: L1210 leukemia ip in BDF1 mice, survival T/C
Experiment: NCI In Vivo Anticancer Drug Screen. Data for tumor model L1210 Leukemia (intraperitoneal) in B6D2F1 (BDF1) mice
Conditions: endpoint: mean survival time, higher = longer survival
Outline: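 Antitumor effect is assessed in tumor-bearing animals. Survival in the compound arm is compared with a vehicle-dosed control arm and expressed as their quotient.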

[1] = dose: 12.5 mg/kg/injection, schedule: Q04DX002 (ip), vehicle: Klucel (hydroxypropylcellulose) (HPC)
[2] = dose: 100.0 mg/kg/injection, schedule: Q04DX003 (ip), vehicle: Klucel (hydroxypropylcellulose) (HPC)
[3] = dose: 200.0 mg/kg/injection, schedule: Q04DX003 (ip), vehicle: Klucel (hydroxypropylcellulose) (HPC)
[4] = dose: 400.0 mg/kg/injection, schedule: Q04DX003 (ip), vehicle: Klucel (hydroxypropylcellulose) (HPC)
[5] = dose: 100.0 mg/kg/injection, schedule: Q01DX001 (ip), vehicle: saline
[6] = dose: 200.0 mg/kg/injection, schedule: Q01DX001 (ip), vehicle: saline
[7] = dose: 400.0 mg/kg/injection, schedule: Q01DX001 (ip), vehicle: saline
[8] = dose: 200.0 mg/kg/injection, schedule: Q04DX003 (ip), vehicle: saline with Tween-80
[9] = dose: 100.0 mg/kg/injection, schedule: Q01DX001 (ip), vehicle: carboxymethylcellulose (CMC)
[10] = dose: 100.0 mg/kg/injection, schedule: Q01DX009 (ip), vehicle: carboxymethylcellulose (CMC)
[11] = dose: 100.0 mg/kg/injection, schedule: Q04DX002 (ip), vehicle: carboxymethylcellulose (CMC)
[12] = dose: 100.0 mg/kg/injection, schedule: Q04DX003 (ip), vehicle: carboxymethylcellulose (CMC)
[13] = dose: 200.0 mg/kg/injection, schedule: Q01DX001 (ip), vehicle: carboxymethylcellulose (CMC)
[14] = dose: 200.0 mg/kg/injection, schedule: Q01DX009 (ip), vehicle: carboxymethylcellulose (CMC)
[15] = dose: 200.0 mg/kg/injection, schedule: Q04DX002 (ip), vehicle: carboxymethylcellulose (CMC)
[16] = dose: 200.0 mg/kg/injection, schedule: Q04DX003 (ip), vehicle: carboxymethylcellulose (CMC)
[17] = dose: 400.0 mg/kg/injection, schedule: Q01DX001 (ip), vehicle: carboxymethylcellulose (CMC)
[18] = dose: 400.0 mg/kg/injection, schedule: Q01DX009 (ip), vehicle: carboxymethylcellulose (CMC)
[19] = dose: 400.0 mg/kg/injection, schedule: Q04DX002 (ip), vehicle: carboxymethylcellulose (CMC)
[20] = dose: 400.0 mg/kg/injection, schedule: Q04DX003 (ip), vehicle: carboxymethylcellulose (CMC)

Measured: T/C

OC(c1ccccc1)(c1ccccc1)C(O)(c1ccccc1)c1ccccc1
inactive: [1] 94 % of control | dose: 25.0 mg/kg/injection, schedule: Q04DX002 (ip), vehicle: Klucel (hydroxypropylcellulose) (HPC) 97 % of control and 122 % of control | dose: 50.0 mg/kg/injection, schedule: Q04DX002 (ip), vehicle: Klucel (hydroxypropylcellulose) (HPC) 115 % of control and 91 % of control | dose: 100.0 mg/kg/injection, schedule: Q04DX002 (ip), vehicle: Klucel (hydroxypropylcellulose) (HPC) 97 % of control | dose: 100.0 mg/kg/injection, schedule: Q04DX002 (ip), vehicle: gum acacia 92 % of control | dose: 100.0 mg/kg/injection, schedule: Q04DX002 (ip), vehicle: saline with Tween-80 102 % of control | [2] 96 % of control | dose: 200.0 mg/kg/injection, schedule: Q04DX002 (ip), vehicle: gum acacia 89 % of control | dose: 200.0 mg/kg/injection, schedule: Q04DX002 (ip), vehicle: saline with Tween-80 99 % of control | [3] 88 % of control | dose: 400.0 mg/kg/injection, schedule: Q04DX002 (ip), vehicle: gum acacia 95 % of control | dose: 400.0 mg/kg/injection, schedule: Q04DX002 (ip), vehicle: saline with Tween-80 99 % of control | [4] 95 % of control

CCOC(=O)N(Cc1ccccc1)C1CC1
inactive: dose: 25.0 mg/kg/injection, schedule: Q01DX009 (ip), vehicle: saline 95 % of control | dose: 25.0 mg/kg/injection, schedule: Q04DX003 (ip), vehicle: saline 104 % of control | dose: 50.0 mg/kg/injection, schedule: Q01DX009 (ip), vehicle: saline 104 % of control | dose: 100.0 mg/kg/injection, schedule: Q01DX009 (ip), vehicle: saline 102 % of control | dose: 100.0 mg/kg/injection, schedule: Q04DX003 (ip), vehicle: saline 104 % of control | dose: 200.0 mg/kg/injection, schedule: Q01DX009 (ip), vehicle: saline 98 % of control | dose: 200.0 mg/kg/injection, schedule: Q04DX003 (ip), vehicle: saline 104 % of control | dose: 400.0 mg/kg/injection, schedule: Q01DX009 (ip), vehicle: saline 103 % of control | dose: 400.0 mg/kg/injection, schedule: Q04DX003 (ip), vehicle: saline 102 % of control

CCOC1(c2ccccc2)C(c2ccccc2)N1C(=O)c1ccc([N+](=O)[O-])cc1 (configuration not stated)
inactive: [2] 92 % of control | [3] 91 % of control | [4] 92 % of control

CC(=O)NN=C1CCC(=NNC(C)=O)CC1
inactive: dose: 12.5 mg/kg/injection, schedule: Q04DX003 (ip), vehicle: Klucel (hydroxypropylcellulose) (HPC) 97 % of control | dose: 25.0 mg/kg/injection, schedule: Q04DX003 (ip), vehicle: Klucel (hydroxypropylcellulose) (HPC) 94 % of control | dose: 50.0 mg/kg/injection, schedule: Q04DX003 (ip), vehicle: Klucel (hydroxypropylcellulose) (HPC) 108 % of control | [2] 110 % of control

C(#CP(c1ccccc1)c1ccccc1)c1ccccc1
inactive: [2] 93 % of control | [3] 97 % of control | [4] 95 % of control

CC1(C)SC(C)(C)N(C=O)C1C(=O)O (configuration not stated)
inactive: [5] 94 % of control | dose: 100.0 mg/kg/injection, schedule: Q01DX009 (ip), vehicle: Klucel (hydroxypropylcellulose) (HPC) 93 % of control | [2] 105 % of control | [6] 94 % of control | dose: 200.0 mg/kg/injection, schedule: Q01DX009 (ip), vehicle: Klucel (hydroxypropylcellulose) (HPC) 94 % of control | [3] 95 % of control | [7] 110 % of control | dose: 400.0 mg/kg/injection, schedule: Q01DX009 (ip), vehicle: Klucel (hydroxypropylcellulose) (HPC) 96 % of control | [4] 97 % of control

CC1=NN(C)C(=O)C1
inactive: dose: 50.0 mg/kg/injection, schedule: Q01DX001 (ip), vehicle: saline 103 % of control | [5] 103 % of control | [6] 103 % of control | [7] 103 % of control

CCOC(=O)/C(C#N)=C/c1cccn1Cc1cc2ccccc2c2ccccc12
inactive: dose: 25.0 mg/kg/injection, schedule: Q04DX002 (ip), vehicle: saline 111 % of control | dose: 50.0 mg/kg/injection, schedule: Q04DX002 (ip), vehicle: saline 111 % of control | dose: 100.0 mg/kg/injection, schedule: Q04DX002 (ip), vehicle: saline 105 % of control

CCC(=O)CC(C)(C)C
inactive: [5] 92 % of control | [6] 97 % of control | [7] 100 % of control

Cc1ccc(-c2c(O)c(Br)c(-c3ccc(C)cc3C)c(O)c2Br)c(C)c1
inactive: dose: 100.0 mg/kg/injection, schedule: Q04DX003 (ip), vehicle: saline with Tween-80 98 % of control | [8] 93 % of control | dose: 400.0 mg/kg/injection, schedule: Q04DX003 (ip), vehicle: saline with Tween-80 93 % of control

CC12C3C(=O)NC45CCCC41C5(c1ccccc1)C32c1ccccc1 (configuration not stated)
inactive: dose: 100.0 mg/kg/injection, schedule: Q01DX001 (ip), vehicle: Klucel (hydroxypropylcellulose) (HPC) 96 % of control | dose: 200.0 mg/kg/injection, schedule: Q01DX001 (ip), vehicle: Klucel (hydroxypropylcellulose) (HPC) 96 % of control | dose: 400.0 mg/kg/injection, schedule: Q01DX001 (ip), vehicle: Klucel (hydroxypropylcellulose) (HPC) 94 % of control

CCOC(=O)CCNC(COCc1ccccc1)C(=O)OCC (configuration not stated)
inactive: [5] 98 % of control | [6] 95 % of control | [7] 106 % of control

CC[S][Pb]([c]1ccccc1)([c]1ccccc1)[c]1ccccc1
inactive: [1] 103 % of control

O=C(Nc1cc([N+](=O)[O-])ccc1O)Nc1cc(C(F)(F)F)ccc1Cl
inactive: [9] 90 % of control | [10] 95 % of control and 103 % of control | [11] 97 % of control and 101 % of control | [12] 94 % of control | [13] 93 % of control | [14] 93 % of control and 95 % of control | [15] 93 % of control and 97 % of control | [16] 92 % of control | [17] 92 % of control | [18] 92 % of control and 93 % of control | [19] 92 % of control and 90 % of control | [20] 97 % of control

CCOC(=O)C1C2OC(=O)C(C(=O)C2C(C2CC=CCC2)N(CCCl)CCCl)C1c1ccc(OC(C)=O)cc1 (configuration not stated)
inactive: [2] 101 % of control | [3] 97 % of control | [4] 98 % of control

OC1c2ccccc2-c2ccc(N(Cc3ccccc3)Cc3ccccc3)cc21 (configuration not stated)
inactive: [8] 87 % of control

ClC(=Nc1ccccc1)c1cc(Cl)ccn1
inactive: [9] 92 % of control | [13] 94 % of control | [17] 100 % of control

O/N=C\c1ccnc2ccccc12
inactive: [10] 93 % of control and 98 % of control | [11] 100 % of control (2×) and 104 % of control | [12] 97 % of control | [14] 105 % of control and 90 % of control | [15] 95 % of control and 100 % of control (2×) | [16] 104 % of control | [18] 98 % of control | [19] 100 % of control and 104 % of control and 90 % of control | [20] 98 % of control

COc1ccc(NC(=O)Nc2ccc(C)c(Cl)c2)cc1
inactive: dose: 100.0 mg/kg/injection, schedule: Q01DX009 (sc), vehicle: olive oil, sesame oil, peanut oil 96 % of control | dose: 100.0 mg/kg/injection, schedule: Q04DX003 (sc), vehicle: olive oil, sesame oil, peanut oil 99 % of control | dose: 200.0 mg/kg/injection, schedule: Q01DX009 (sc), vehicle: olive oil, sesame oil, peanut oil 107 % of control | dose: 200.0 mg/kg/injection, schedule: Q04DX003 (sc), vehicle: olive oil, sesame oil, peanut oil 93 % of control | dose: 400.0 mg/kg/injection, schedule: Q01DX009 (sc), vehicle: olive oil, sesame oil, peanut oil 94 % of control | dose: 400.0 mg/kg/injection, schedule: Q04DX003 (sc), vehicle: olive oil, sesame oil, peanut oil 97 % of control

Cc1cccc2c1SCCC2=O
inactive: [5] 92 % of control | [6] 92 % of control | [7] 89 % of control

CSC(=S)NNC(=O)c1ccc(C)cc1
inactive: dose: 20.0 mg/kg/injection, schedule: Q04DX003 (ip), vehicle: saline 96 % of control | dose: 40.0 mg/kg/injection, schedule: Q04DX003 (ip), vehicle: saline 98 % of control | dose: 75.0 mg/kg/injection, schedule: Q01DX001 (ip), vehicle: saline 98 % of control | dose: 75.0 mg/kg/injection, schedule: Q04DX003 (ip), vehicle: saline 105 % of control
